Results on eleven compounds are retold here after PMC6150311, “Proline-Based Carbamates as Cholinesterase Inhibitors” (Molecules : A Journal of Synthetic Chemistry and Natural …, 2017).

Broadly, the IC50 is the concentration at which inhibition is half-maximal.

In assay [1] the target is T1, AChE from electric eel (Electrophorus electricus) (Electrophorus electricus, UniProt O42275).
T1 construct: AChE (from electric eel) and BChE (from equine serum); purchased Sigma, St. Louis, MO, USA; host or cells: electric eel (animal source)
In words: In vitro AChE inhibition, modified Ellman's method. Format: biochemical. How it is done: (§1) The ability of all prepared compounds to inhibit AChE from electric eel (Electrophorus electricus) and BChE from equine serum (both purchased from Sigma, St. Louis, MO, USA) was determined in vitro using a modified Ellman’s method. […] The Ellman’s method is widely used for measuring cholinesterase activity and the effectivity of ChEIs. It is a simple, rapid and direct method to determine SH and –S–S– groups content in proteins. Cholinesterase activity is measured indirectly by quantifying the concentration of 5-thio-2-nitrobenzoic acid (TNB) ion formed in the reaction between disulfide reagent 5,5′-dithiobis-2-nitrobenzoic acid (DTNB) and thiocholine, a product of substrate (i.e., acetylthiocholine, ATCh) hydrolysis catalyzed by cholinesterase.
(§2) All tested compounds were dissolved in DMSO (concentration 0.01 M) and diluted in demineralized water (concentrations 0.001 M and 0.0001 M). The ability of tested compounds to inhibit AChE (from electric eel) and BChE (from equine serum) was determined using the modified Ellman’s method at 25 °C in the presence of phosphate buffered saline (PBS, 0.1 M, pH 7.4) in a glass cuvette with 1 cm optical path. The enzyme activity in total reaction mixture (2 mL) was 0.2 U/mL, the concentration of substrate ATCh 40 μM and the concentration of DTNB 0.1 mM for all reactions. The IC50 value was obtained from the dependence of v0/vi on the concentration of the tested compound (inhibitor), where v0 is the reaction rate of uninhibited reaction and vi is the reaction rate of inhibited reaction (for the given concentration of the inhibitor). First, v0 was determined. Into the cuvette PBS (0.1 M, pH 7.4), DTNB and ATCh were placed. The enzymatic reaction was started by adding the enzyme. […] The measurement was performed in triplicate at least, and average v0 was determined. Then, vi (for the given concentration of the inhibitor) was determined. Into the cuvette DTNB, ATCh, a chosen volume of the suitably diluted inhibitor (to achieve the required concentration of the inhibitor in the total reaction mixture) and a certain volume of PBS (to achieve the total volume of the reaction mixture 2 mL after adding the enzyme) were placed. The enzymatic reaction was started by adding the enzyme. […] For determination of IC50 values, twelve different concentrations of inhibitor were used and each measurement was performed in triplicate at least.

For a further assay, the target named is T2, BChE from equine serum (Equus caballus, UniProt P81908).
T2 construct: BChE (from equine serum); purchased Sigma, St. Louis, MO, USA; host or cells: equine serum
The assay can be described thus: In vitro BChE inhibition, modified Ellman's method. In kind it is biochemical. The note with it: for SI (index selectivity) = IC50 (AChE)/IC50 (BChE): ratio AChE/BChE, higher = more selective to BChE. How it is done:
as §1, §2

Assay [2] relates to human monocytic leukemia THP-1 cells. In words: In vitro cytotoxicity assay (WST-1). The settings on record: 24 h, highest tested concentration 30 μM, read-out: tox. IC50. Format: cell-based. As for the experimental part: The cytotoxicity was evaluated as the IC50 value (compound concentration causing 50% inhibition of cell population proliferation) (see Table 1). […] Based on these observations, it can be concluded that the discussed compounds can be considered as non-toxic agents for subsequent design of novel drugs.
Human monocytic leukemia THP-1 cells were used for in vitro toxicity assay. Cells were obtained from the European Collection of Cell Cultures (ECACC, Salisbury, UK) and routinely cultured in RPMI 1640 (Lonza, Verviers, Belgium) medium supplemented with 10% fetal bovine serum (FBS, Sigma), 2% L-glutamine, 1% penicillin and streptomycin (Lonza, Verviers, Belgium) at 37 °C with 5% CO2. Cells were passaged at approximately one week intervals. The cytotoxicity of the compounds was determined using a WST-1 assay kit (Roche Diagnostics, Mannheim, Germany) according to the manufacturer’s instructions. The tested compounds were dissolved in DMSO and added in five increasing concentrations (0.37, 1.1, 3.3, 10, and 30 μM) to the cell suspension in the culture RPMI 1640 medium. The maximum concentration of DMSO (Sigma) in the assays never exceeded 0.1%. Subsequently, the cells were incubated for 24 h at 37 °C with 5% CO2. For WST-1 assays, cells were seeded into 96-well plates (5 × 10^4 cells/well in 100 μL culture medium) in triplicate in serum-free RPMI 1640 medium, and measurements were taken 24 h after the treatment with the compounds. The median inhibition concentration values, IC50, were deduced through the production of a dose-response curve. All data were evaluated using the GraphPad Prism 5.00 software (GraphPad Software, San Diego, CA, USA).
Background: Tetrazolium assays rely on reduction of a dye to a coloured formazan, in cell work by metabolically active cells.

T2 sequence (P81908 whole entry): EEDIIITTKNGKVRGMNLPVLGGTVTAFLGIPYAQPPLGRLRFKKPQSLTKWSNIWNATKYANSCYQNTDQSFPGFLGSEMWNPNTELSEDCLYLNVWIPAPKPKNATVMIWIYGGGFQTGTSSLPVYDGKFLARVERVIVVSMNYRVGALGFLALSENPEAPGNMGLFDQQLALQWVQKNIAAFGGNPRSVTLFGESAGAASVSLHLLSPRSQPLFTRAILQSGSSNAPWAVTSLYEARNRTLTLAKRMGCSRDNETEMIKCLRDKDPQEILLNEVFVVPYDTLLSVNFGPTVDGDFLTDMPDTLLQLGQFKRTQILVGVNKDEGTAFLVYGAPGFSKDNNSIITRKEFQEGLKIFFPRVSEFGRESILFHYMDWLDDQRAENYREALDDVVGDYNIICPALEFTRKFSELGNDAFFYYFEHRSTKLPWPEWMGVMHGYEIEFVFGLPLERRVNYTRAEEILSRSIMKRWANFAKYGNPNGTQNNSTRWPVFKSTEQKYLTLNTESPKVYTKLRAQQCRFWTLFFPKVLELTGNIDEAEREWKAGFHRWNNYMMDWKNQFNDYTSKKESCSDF
T1 sequence (O42275 24-633): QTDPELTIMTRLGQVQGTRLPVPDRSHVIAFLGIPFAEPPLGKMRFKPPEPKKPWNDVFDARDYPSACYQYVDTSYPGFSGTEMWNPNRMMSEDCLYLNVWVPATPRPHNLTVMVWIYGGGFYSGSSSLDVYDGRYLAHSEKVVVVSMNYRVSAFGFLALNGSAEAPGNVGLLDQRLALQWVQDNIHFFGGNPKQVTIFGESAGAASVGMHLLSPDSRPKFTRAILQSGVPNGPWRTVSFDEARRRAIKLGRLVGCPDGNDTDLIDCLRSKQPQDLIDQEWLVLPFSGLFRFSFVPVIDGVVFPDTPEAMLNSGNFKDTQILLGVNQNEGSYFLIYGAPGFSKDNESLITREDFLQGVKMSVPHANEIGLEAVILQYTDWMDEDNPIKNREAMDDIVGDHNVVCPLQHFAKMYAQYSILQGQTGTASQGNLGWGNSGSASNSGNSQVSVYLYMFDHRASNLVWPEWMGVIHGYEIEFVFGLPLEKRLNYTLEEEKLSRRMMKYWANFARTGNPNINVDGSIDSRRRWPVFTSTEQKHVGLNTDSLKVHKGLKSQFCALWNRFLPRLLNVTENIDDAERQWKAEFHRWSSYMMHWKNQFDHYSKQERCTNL

On to `O=C(Nc1ccccc1)[C@@H]1CCCN1C(=O)OCc1ccccc1` [Compound 1, Benzyl (2S)-2-(phenylcarbamoyl)pyrrolidine-1-carboxylate], for which the values for the concentration for half-maximal inhibition (IC50) (in assay [1]; at BChE from equine serum; in assay [2]) were 106 ± 2.2 µM, 55.6 ± 1.01 µM and more than 30 µM, respectively. Besides, the “SI (index selectivity) = IC50 (AChE)/IC50 (BChE)” value (“SI (index selectivity) = IC50” below) on BChE from equine serum is on record as 1.91.
For `COc1ccccc1NC(=O)[C@@H]1CCCN1C(=O)OCc1ccccc1` [Compound 2a, Benzyl (2S)-2-[(2-methoxyphenyl)carbamoyl]pyrrolidine-1-carboxylate], in that order: 131 ± 1.29 µM, 51.5 ± 0.75 µM, more than 30 µM and 2.54.
For the compound `COc1cccc(NC(=O)[C@@H]2CCCN2C(=O)OCc2ccccc2)c1` [Compound 2b, Benzyl (2S)-2-[(3-methoxyphenyl)carbamoyl]pyrrolidine-1-carboxylate], the figures for the IC50 (in assay [1]; at BChE from equine serum; in assay [2]) were 126 ± 2.79 µM, 58.47 ± 0.42 µM and more than 30 µM, respectively. In addition, at BChE from equine serum, the “SI (index selectivity) = IC50” value came to 2.16.
Turning to `COc1ccc(NC(=O)[C@@H]2CCCN2C(=O)OCc2ccccc2)cc1` [Compound 2c, Benzyl (2S)-2-[(4-methoxyphenyl)carbamoyl]pyrrolidine-1-carboxylate], the IC50 in assay [1] was 109.4 ± 0.22 µM; on BChE from equine serum it was 117.4 ± 0.45 µM; in assay [2], more than 30 µM. Further, at BChE from equine serum, the “SI (index selectivity) = IC50” value came out at 0.93.
For `Cc1ccccc1NC(=O)[C@@H]1CCCN1C(=O)OCc1ccccc1` [Compound 3a, Benzyl (2S)-2-[(2-methylphenyl)carbamoyl]pyrrolidine-1-carboxylate], in that order: 61.9 ± 1.35 µM, 98.3 ± 5.88 µM, more than 30 µM and 0.63.
`Cc1cccc(NC(=O)[C@@H]2CCCN2C(=O)OCc2ccccc2)c1` [Compound 3b, Benzyl (2S)-2-[(3-methylphenyl)carbamoyl]pyrrolidine-1-carboxylate]: the IC50 was 81.06 ± 0.03 µM in assay [1], 115 ± 4.83 µM at BChE from equine serum and more than 30 µM in assay [2]. Besides, the “SI (index selectivity) = IC50” value on BChE from equine serum is 0.71.
Turning to `Cc1ccc(NC(=O)[C@@H]2CCCN2C(=O)OCc2ccccc2)cc1` [Compound 3c, Benzyl (2S)-2-[(4-methylphenyl)carbamoyl]pyrrolidine-1-carboxylate], the 50% inhibitory concentration (IC50) in assay [1] is 123.4 ± 0.44 µM; against BChE from equine serum it was 153 ± 2.29 µM; in assay [2], more than 30 µM. Also, the “SI (index selectivity) = IC50” value at BChE from equine serum is listed as 0.81.
For `O=C(Nc1ccccc1F)[C@@H]1CCCN1C(=O)OCc1ccccc1` [Compound 4a, Benzyl (2S)-2-[(2-fluorophenyl)carbamoyl]pyrrolidine-1-carboxylate], in that order: 51.9 ± 0.76 µM, 60 µM, more than 30 µM and 0.86.
Taken in the same sequence, the figures for `O=C(Nc1cccc(F)c1)[C@@H]1CCCN1C(=O)OCc1ccccc1` [Compound 4b, Benzyl (2S)-2-[(3-fluorophenyl)carbamoyl]pyrrolidine-1-carboxylate] were 69.88 ± 0.21 µM, 34.61 ± 0.11 µM, more than 30 µM and 2.02.
Taken in the same sequence, the figures for `O=C(Nc1ccc(F)cc1)[C@@H]1CCCN1C(=O)OCc1ccccc1` [Compound 4c, Benzyl (2S)-2-[(4-fluorophenyl)carbamoyl]pyrrolidine-1-carboxylate] were 87.2 ± 1 µM, 58.1 ± 1.39 µM, more than 30 µM and 1.50.
As to `O=C(Nc1ccccc1Cl)[C@@H]1CCCN1C(=O)OCc1ccccc1` [Compound 5a, Benzyl (2S)-2-[(2-chlorophenyl)carbamoyl]pyrrolidine-1-carboxylate], the half-maximal inhibitory concentration (IC50) in assay [1] is 46.4 ± 1.05 µM; at BChE from equine serum, 53.47 ± 0.52 µM; in assay [2] it was more than 30 µM. Further, the “SI (index selectivity) = IC50” value on BChE from equine serum turned out to be 0.87.
